# Source: ChEMBL document CHEMBL1201862, “PubChem BioAssay data set” (2004)
# Calls of active or inactive are those of the source.
# How the values were obtained:
# [1] = Fluorescence polarization-based biochemical high throughput dose response assay for activators of the Protein Kinase A-R2B (PKA-R2B) complex. [Related pubchem assays (depositor defined):AID504700, AID504704, AID504796, AID504797]
# [2] = Fluorescence polarization-based biochemical high throughput dose response assay for activators of the Protein Kinase A-R1A (PKA-R1A) complex. [Related pubchem assays (depositor defined):AID504704, AID504707, AID504799, AID504800]
# HEK293 [3] = assay: cells; type: functional, cell-based; conditions: Homo sapiens
# [4] = molecular target: Nuclear receptor subfamily 0 group B member 1 (Homo sapiens, UniProt P51843); assay: Luminescence-based cell-based high throughput dose response assay for inhibitors of the orphan nuclear receptor subfamily 0, group B, member 1 (DAX1; NR0B1). [Related pubchem assays (depositor defined):AID504766, AID504790]; type: functional
# [5] = loss of viability in HepG2 cells – cell-based, CellTiter-Glo, cherry-picked, cytotoxicity control for Shn3 inhibitor project, dose response (AID 624134); type: functional
# [6] = reduction of Shn3 3'UTR-driven luciferase in osteoblasts – cell-based, Clone20 osteoblasts, firefly luciferase, cherry-picked, dose response (AID 624132); type: functional;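 further: firefly luciferase luminescence from reporter carrying the Shn3 3'UTR in osteoblasts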
# [7] = molecular target: T1, Heat shock factor protein 1 (Mus musculus, UniProt P38532); assay: enhancement of HSF1-driven luciferase signal – cell-based, NIH3T3, luminescence, dose retest, confirmation (AID 435004); type: functional;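 further: stress induced by proteasome inhibitor MG132 added 30 min after compound; luciferase reporter driven by HSF1 response element in NIH3T3 cells; actives raise luminescence as potentiators of the MG132 stress response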
# T1 sequence (P38532 whole entry): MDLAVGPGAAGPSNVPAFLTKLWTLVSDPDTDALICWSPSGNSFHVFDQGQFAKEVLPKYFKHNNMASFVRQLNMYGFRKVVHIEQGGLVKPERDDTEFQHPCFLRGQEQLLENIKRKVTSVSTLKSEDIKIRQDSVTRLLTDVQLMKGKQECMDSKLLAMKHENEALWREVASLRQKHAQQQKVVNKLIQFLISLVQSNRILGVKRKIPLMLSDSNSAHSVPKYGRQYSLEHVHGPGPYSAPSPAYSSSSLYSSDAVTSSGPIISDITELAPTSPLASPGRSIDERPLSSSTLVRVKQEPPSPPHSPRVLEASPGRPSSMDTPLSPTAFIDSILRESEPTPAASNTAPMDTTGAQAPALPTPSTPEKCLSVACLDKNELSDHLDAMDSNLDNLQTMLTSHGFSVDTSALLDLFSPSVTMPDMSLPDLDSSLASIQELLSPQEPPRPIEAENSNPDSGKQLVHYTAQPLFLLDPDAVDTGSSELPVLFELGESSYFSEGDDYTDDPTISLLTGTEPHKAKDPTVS
# cells [8] = type: functional
# A-375 [9] = assay: proliferation inhibition in MITF-low A375 cells – cell-based, cherry-pick samples, set 2, counter-screen for MITF modulator project, dose response (AID 540335); type: functional; conditions: Homo sapiens
# [10] = non-specific 3'UTR reporter inhibition in Clone20-Shn3RL – cell-based, Renilla luciferase, cherry-picked, counter-screen for Shn3 inhibitor project, dose response (AID 624133); type: functional
# [11] = molecular target: T2, Microphthalmia-associated transcription factor (Homo sapiens, UniProt O75030); assay: reducers of TRPM1 reporter luminescence, concentration series – cell-based, SK-MEL-5, cherry-picked, set 3, MITF inhibitor project, dose response (AID 493073); type: functional;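 further: SK-MEL-5 melanoma cells with luciferase driven by the MITF target TRPM1 promoter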
# T2 sequence (O75030 whole entry): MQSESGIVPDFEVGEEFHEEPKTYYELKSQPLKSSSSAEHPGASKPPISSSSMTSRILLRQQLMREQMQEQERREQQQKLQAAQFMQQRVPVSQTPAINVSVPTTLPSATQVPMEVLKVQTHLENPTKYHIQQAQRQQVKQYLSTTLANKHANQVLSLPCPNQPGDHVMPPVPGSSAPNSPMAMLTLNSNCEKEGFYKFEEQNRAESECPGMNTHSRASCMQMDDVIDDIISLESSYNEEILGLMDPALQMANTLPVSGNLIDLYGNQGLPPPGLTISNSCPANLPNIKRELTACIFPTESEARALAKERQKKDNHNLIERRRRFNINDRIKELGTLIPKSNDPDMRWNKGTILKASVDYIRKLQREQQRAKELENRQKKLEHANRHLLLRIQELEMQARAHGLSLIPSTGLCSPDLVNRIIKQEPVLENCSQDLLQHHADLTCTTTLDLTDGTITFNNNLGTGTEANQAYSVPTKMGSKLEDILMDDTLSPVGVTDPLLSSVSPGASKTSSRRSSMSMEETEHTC
# CHO = CHO cell viability loss, potency – luminescence, cytotoxicity control for TLR9-MyD88 binding inhibitor project, dose response (AID 588339); type: functional, cell-based, hamster; conditions: Cricetulus griseus;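 further: CHO cells stably coexpressing TLR9 and MyD88 fusions from primary screen; compound exposure lasted 48 hours before viability readout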
# INS1 [12] = assay: INS-1E survival protection against cytokine death – cell-based, luminescence, retest, dose response (AID 449756); type: functional; conditions: Rattus norvegicus;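 further: cell death triggered by IL-1 beta plus TNF-alpha plus IFN-gamma mixture; protective hits raise ATP signal compared with cytokine alone wells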
# [13] = molecular target: Heat shock protein HSP 90-alpha (Homo sapiens, UniProt P07900); type: functional, organism-based
# Beta Lactamase = Beta Lactamase (Pseudomonas aeruginosa, UniProt Q932Y6); assay: BLA reporter interference, concentration series – BLA reporter cells, FRET fluorescence, artefact control for TLR9-MyD88 binding inhibitor project, dose response (AID 588341); type: cell-based;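 further: cell based assay in CHO-K1 cells stably expressing beta-lactamase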
# A-375 [14] = assay: MITF: Counter assay: A375 proliferation Measured in Cell-Based System Using Plate Reader - 2084-03_Inhibitor_Dose_DryPowder_Activity. [Related pubchem assays (depositor defined):AID488944]; type: functional; conditions: Homo sapiens
# [15] = THP-1 cell cytotoxicity, dose response, cytotoxicity control for non-replicating M. tuberculosis project (AID 489025); type: functional
# INS1 [16] = assay: INS-1E mitochondrial potential rescue under cytokines – cell-based, JC-1 fluorescence ratio, dry powder, dose response (AID 488931); type: functional; conditions: Rattus norvegicus
# [17] = NIH-3T3 fibroblast cytotoxicity, dose response, cytotoxicity control, cell-based, fluorescence, Alamar Blue, secondary assay (AID 2327); type: functional;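 further: NIH-3T3 mouse fibroblasts cultured with fluconazole at 8 µg/mL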
# cells [18] = type: functional, cell-based
# [19] = molecular target: Serine/threonine-protein phosphatase (Candida dubliniensis (strain CD36 / CBS 7987 / NCPF 3949 / NRRLY-17841) (Yeast), UniProt B9W6M3); assay: blockers of CaCl2-induced CDRE-lacZ signaling – S. cerevisiae, luminescence, secondary, dose response (AID 2388); type: functional, cell-based;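 further: yeast reporter cells carrying a calcineurin-responsive lacZ construct stimulated with calcium chloride; luminescent beta-galactosidase reporter signal in whole cells rather than isolated phosphatase activity; potency for inhibition where a drop in reporter signal means calcineurin blockade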
# HEK293 [20] = assay: EBV LMP1 TES2 canonical NF-kB signalling blockers – cell-based, HEK293, luciferase, cherry-pick, dose response (AID 588343); type: functional; conditions: Homo sapiens
# [21] = test system: Streptococcus sp. 'group A'; assay: Streptococcus pyogenes SK(-)GAS viability under kanamycin – luminescence, BacTiterGlo, confirmation, counter-screen for streptokinase expression inhibitor project, dose response (AID 1900); type: functional, organism-based
# [22] = molecular target: ATP-dependent molecular chaperone HSP82 (Candida albicans (strain WO-1) (Yeast), UniProt C4YTQ8); assay: steroid-induced GRE reporter decrease in yeast – S. cerevisiae, luminescence, Hsp90 inhibitor project, dose response (AID 2400); type: functional, cell-based;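 further: beta-galactosidase luminescence from glucocorticoid response element reporter as proxy for Hsp90 function; inhibitor potency where signal loss means Hsp90 inhibition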
# cells [23] = type: functional, cell-based; remark: listed apart in the source
# Streptococcus = assay: GAS UMAA2166 growth inhibition – luminescence, BacTiterGlo, counter-screen for streptokinase expression inhibitor project, dose response (AID 1915); type: functional, organism-based;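 further: potency for reduction of bacterial viability or growth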
# [24] = alpha-synuclein stem-loop luciferase translation blockers – H4 neuroglioma cells, luminescence, confirmation (AID 1988); type: functional, cell-based
# [25] = molecular target: T3, Rac GTPase-activating protein 1 (Homo sapiens, UniProt Q9H0H5); assay: blockers of MgcRacGAP-driven Rac1 GTP hydrolysis – biochemical, ADP Hunter fluorescence, primary and confirmatory, confirmation (AID 624330); type: functional
# T3 sequence (Q9H0H5 whole entry): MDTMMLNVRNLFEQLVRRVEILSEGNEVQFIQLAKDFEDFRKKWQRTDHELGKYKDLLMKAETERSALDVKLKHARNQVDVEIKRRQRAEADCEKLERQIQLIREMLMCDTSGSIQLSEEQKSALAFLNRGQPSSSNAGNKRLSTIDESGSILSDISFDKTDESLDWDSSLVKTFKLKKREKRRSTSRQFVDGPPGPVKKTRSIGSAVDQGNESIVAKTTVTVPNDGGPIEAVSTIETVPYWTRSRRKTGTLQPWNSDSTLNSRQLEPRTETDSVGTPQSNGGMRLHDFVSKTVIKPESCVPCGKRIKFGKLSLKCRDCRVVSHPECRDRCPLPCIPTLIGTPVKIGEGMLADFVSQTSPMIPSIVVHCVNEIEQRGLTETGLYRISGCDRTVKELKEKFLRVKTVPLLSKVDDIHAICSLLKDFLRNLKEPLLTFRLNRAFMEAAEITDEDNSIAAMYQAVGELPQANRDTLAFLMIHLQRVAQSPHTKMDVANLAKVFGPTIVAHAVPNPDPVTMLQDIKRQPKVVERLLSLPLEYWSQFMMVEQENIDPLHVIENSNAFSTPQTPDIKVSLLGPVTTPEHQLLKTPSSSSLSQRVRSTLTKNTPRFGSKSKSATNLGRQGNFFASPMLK
# [26] = luciferase reporter signal suppression in cells – H4 neuroglioma cells, luminescence, dose response (AID 1990); type: functional, cell-based
# [27] = Luminescence Cell-Based Dose Response HTS to Identify Inhibitors of 5'UTR Stem-Loop Driven Prion Protein mRNA Translation in H4 Neuroglioblastoma Cells. [Related pubchem assays: 1827 (Project Summary), 1813 (Primary HTS)]; type: functional
# [28] = fluconazole-exposed Candida albicans growth modulators – fluorescence, retest, confirmation (AID 2467); type: functional, cell-based
# Streptokinase A = molecular target: T4, Streptokinase A (Streptococcus pyogenes serotype M1, UniProt P10520); assay: viability-normalized secreted streptokinase activity reduction – plasminogen activation absorbance, OD405, dose response (AID 1914); type: functional, Streptococcus pyogenes M1 GAS;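 further: secreted streptokinase activity via plasminogen activation per viability signal from cell pellet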
# T4 sequence (P10520 whole entry): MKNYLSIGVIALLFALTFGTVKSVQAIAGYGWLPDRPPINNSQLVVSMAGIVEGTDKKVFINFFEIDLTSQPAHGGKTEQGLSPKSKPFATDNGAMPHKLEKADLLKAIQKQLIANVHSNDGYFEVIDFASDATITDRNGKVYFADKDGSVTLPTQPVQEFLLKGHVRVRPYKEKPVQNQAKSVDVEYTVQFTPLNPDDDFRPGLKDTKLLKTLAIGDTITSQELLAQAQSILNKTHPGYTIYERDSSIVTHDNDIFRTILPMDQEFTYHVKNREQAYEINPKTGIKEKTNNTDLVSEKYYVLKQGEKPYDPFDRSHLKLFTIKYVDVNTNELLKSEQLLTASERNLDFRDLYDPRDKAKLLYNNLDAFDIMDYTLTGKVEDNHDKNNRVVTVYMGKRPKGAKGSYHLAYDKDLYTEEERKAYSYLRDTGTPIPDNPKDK
# Beta Lactamase, sequence (Q932Y6 whole entry): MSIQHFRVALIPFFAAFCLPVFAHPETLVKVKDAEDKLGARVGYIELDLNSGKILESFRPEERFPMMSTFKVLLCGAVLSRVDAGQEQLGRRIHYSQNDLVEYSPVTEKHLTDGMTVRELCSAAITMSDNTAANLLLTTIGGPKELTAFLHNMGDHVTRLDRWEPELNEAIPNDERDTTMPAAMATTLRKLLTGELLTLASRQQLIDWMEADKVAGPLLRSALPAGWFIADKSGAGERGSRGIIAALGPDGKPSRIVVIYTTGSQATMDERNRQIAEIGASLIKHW
# Serine/threonine-protein phosphatase, sequence (B9W6M3 whole entry): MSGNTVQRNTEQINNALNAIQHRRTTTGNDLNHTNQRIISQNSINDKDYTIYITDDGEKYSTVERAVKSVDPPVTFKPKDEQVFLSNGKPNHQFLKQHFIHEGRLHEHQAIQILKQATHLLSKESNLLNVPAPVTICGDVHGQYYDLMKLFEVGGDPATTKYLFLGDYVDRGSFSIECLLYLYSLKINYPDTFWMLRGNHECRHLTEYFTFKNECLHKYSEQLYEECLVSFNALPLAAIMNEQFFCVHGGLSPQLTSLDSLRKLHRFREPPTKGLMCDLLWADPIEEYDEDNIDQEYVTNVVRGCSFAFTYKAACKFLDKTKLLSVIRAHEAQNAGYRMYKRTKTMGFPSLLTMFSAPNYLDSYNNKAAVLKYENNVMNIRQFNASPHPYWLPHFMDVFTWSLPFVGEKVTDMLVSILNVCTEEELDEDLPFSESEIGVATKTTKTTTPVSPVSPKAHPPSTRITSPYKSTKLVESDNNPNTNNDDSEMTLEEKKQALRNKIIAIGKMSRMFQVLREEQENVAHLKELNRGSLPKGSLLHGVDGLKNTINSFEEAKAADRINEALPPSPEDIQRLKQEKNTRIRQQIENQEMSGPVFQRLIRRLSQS
# Nuclear receptor subfamily 0 group B member 1, sequence (P51843 whole entry): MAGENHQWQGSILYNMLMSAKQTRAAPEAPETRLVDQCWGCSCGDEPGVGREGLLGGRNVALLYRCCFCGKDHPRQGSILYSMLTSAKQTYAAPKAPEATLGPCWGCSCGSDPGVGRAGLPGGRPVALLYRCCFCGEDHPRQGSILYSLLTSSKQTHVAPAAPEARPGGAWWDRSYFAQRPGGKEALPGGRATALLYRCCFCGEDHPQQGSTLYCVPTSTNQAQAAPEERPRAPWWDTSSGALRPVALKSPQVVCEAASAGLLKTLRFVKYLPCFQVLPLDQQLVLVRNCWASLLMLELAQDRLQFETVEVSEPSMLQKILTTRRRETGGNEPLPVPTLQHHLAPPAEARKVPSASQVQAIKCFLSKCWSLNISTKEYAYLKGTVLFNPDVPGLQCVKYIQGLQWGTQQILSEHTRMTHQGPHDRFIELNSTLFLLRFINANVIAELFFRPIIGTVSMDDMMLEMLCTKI
# ATP-dependent molecular chaperone HSP82, sequence (C4YTQ8 whole entry): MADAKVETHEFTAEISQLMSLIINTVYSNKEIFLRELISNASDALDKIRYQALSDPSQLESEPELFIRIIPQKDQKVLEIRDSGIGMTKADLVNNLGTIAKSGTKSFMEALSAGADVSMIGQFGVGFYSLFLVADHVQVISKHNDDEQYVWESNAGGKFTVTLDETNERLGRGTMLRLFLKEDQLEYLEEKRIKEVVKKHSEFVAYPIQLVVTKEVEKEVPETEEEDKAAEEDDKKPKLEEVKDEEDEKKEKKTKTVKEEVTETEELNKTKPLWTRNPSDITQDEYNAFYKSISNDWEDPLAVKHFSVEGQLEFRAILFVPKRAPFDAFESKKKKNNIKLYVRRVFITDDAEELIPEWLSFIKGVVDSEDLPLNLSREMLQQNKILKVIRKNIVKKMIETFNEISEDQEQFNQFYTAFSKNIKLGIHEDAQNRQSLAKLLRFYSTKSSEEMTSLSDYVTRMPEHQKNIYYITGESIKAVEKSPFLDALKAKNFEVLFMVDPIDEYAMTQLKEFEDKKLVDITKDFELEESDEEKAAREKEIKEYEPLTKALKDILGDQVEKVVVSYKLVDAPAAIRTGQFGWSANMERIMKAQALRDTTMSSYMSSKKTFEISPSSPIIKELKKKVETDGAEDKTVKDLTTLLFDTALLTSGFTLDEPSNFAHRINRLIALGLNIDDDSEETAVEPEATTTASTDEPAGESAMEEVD
compound,measurement,setting,value
CCCC(=O)Nc1ncnc2c1ncn2[C@@H]1O[C@@H]2COP(=O)(O)O[C@H]2[C@H]1OC(=O)CCC,EC50,[1],5.38 µM (active)
same,EC50,[2],4.48 µM (active)
Cc1cnc(C(=O)OCC(=O)NCCCc2ccccc2)cn1,IC50,HEK293 [3],> 67.5 µM (inactive)
same,IC50,[4],> 67.5 µM (inactive)
CCOC(=O)COc1ccc2ccccc2c1/C=C/[N+](=O)[O-],AC50,[5],20.9 µM (active)
same,AC50,[6],5.2 µM (active)
same,EC50,[7],3.33 µM (inconclusive)
same,IC50,cells [8],2.81 µM (active)
same,AC50,A-375 [9],> 35 µM (active)
same,AC50,[10],12.9 µM (active)
same,AC50,[11],8.17 µM (active)
same,IC50,CHO,2.72 µM (active)
same,AC50,INS1 [12],> 60 µM (inactive)
same,AC50,[13],4.28 µM (active)
same,IC50,Beta Lactamase,30.5 µM (inactive)
same,AC50,A-375 [14],> 35 µM (active)
same,CC50,[15],19.1 µM (active)
C[C@@H]1CN([C@@H](C)CO)C(=O)c2cccc(NC(=O)Nc3cccc4ccccc34)c2O[C@H]1CN(C)S(C)(=O)=O,AC50,INS1 [16],> 195 µM (inactive)
O=C(N/N=C/c1sc2ccccc2c1O)c1cccc2ccccc12,EC50,[17],> 160 µM (inactive)
same,EC50,cells [18],12.5 µM (active)
same,EC50,[19],> 180 µM (inactive)
same,AC50,HEK293 [20],5.14 µM (active)
same,EC50,[21],3.44 µM (active)
same,EC50,[22],9.14 µM (active)
same,EC50,cells [23],> 350 µM (not active)
same,EC50,Streptococcus,12.4 µM (active)
same,EC50,[24],9 µM (active)
same,IC50,[25],52.9 µM (active)
same,AC50,INS1 [12],1.1 µM (active)
same,EC50,[26],10.6 µM (active)
same,EC50,[27],10.4 µM (active)
same,EC50,[28],0.738 µM (active)
same,AC50,[13],14 µM (active)
same,EC50,Streptokinase A,> 150 µM (not active)
